In patent US20100029732A1, “Combinations of Beta-2-Adrenoceptor Agonistic Benzothiazolone” (ASTRAZENECA AB, priority 2007, published 2010):
Structures can show the parent of a compound that is named as a salt.

Key:
[1] = test system: guinea pig trachea contracted with methacholine; test: Bronchodilator activity in guinea pig isolated tracheal ring preparation: onset measurements; settings: rings contracted with methacholine 1 μM, mean±s.e.mean, n=4
Experimental: Guinea pigs (300-500 g) were killed by cervical dislocation and the trachea was isolated. The trachea was cut into segments 2-3 cartilage rings in width and suspended in 10 ml organ baths in modified Krebs' solution (mM; NaCl, 90; NaHCO3, 45; KCl, 5; MgSO4.7H2O, 0.5; Na2HPO4.2H2O, 1; CaCl2, 2.25; glucose, 10; pH 7.4) gassed with 5% CO2, 95% O2 at 37° C.). The tracheal rings were attached to an isometric force transducer for the measurement of isometric tension. The tissues were washed and a force of 1 g was applied to each tissue. The rings were contracted with methacholine (1 μM). Once the contraction had reached a plateau, vehicle (0.01% DMSO in distilled H2O), compound A (3 nM), roflumilast (1 μM) or a combination of compound A (3 nM) and roflumilast (1 μM) was added and the tissue left until the response had reached a plateau. Data were collected using the Chart 4 software (ADInstruments, Charlgrove, UK). The time to 90% of the maximum effect of the bronchodilator (onset time) was measured and expressed in min (mean±s.e.mean).

[2] = target: T1, Adrenergic β2 (Homo sapiens, UniProt P07550); test: Adrenergic β2 mediated cAMP production in H292 cells (AlphaScreen); assay type: cell-based
T1 construct: Adherent H292 cells were removed from tissue culture flasks; endogenous in cells; host or cells: H292 cells
T1 sequence (P07550 whole entry): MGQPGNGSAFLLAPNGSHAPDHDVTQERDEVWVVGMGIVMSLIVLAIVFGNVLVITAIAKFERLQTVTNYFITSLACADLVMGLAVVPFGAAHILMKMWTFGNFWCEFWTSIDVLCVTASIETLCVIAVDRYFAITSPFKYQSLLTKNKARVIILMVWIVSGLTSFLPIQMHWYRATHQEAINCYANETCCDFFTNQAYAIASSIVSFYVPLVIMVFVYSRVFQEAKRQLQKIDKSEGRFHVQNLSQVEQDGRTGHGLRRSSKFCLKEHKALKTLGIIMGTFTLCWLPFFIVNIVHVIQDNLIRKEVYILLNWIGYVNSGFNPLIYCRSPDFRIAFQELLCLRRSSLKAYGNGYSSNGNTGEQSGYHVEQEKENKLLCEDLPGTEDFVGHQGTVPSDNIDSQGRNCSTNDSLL
Experimental: Adrenergic β2 Mediated cAMP Production
H292 cells were grown in 225 cm2 flasks incubator at 37° C., 5% CO2 in RPMI medium containing, 10% (v/v) FBS (foetal bovine serum) and 2 mM L-glutamine.
Adherent H292 cells were removed from tissue culture flasks by treatment with Accutase™ cell detachment solution for 15 minutes. Flasks were incubated for 15 minutes in a humidified incubator at 37° C., 5% CO2. Detached cells were re-suspended in RPMI media (containing 10% (v/v) FBS and […] L-glutamine) at 0.05×10^6 cells per 1 mL. 5000 cells in 100 μL were added to each well of a tissue-culture-treated 96-well plate and the cells incubated overnight in a humidified incubator at 37° C., 5% CO2. The culture media was removed and cells were washed twice with 100 μL assay buffer and replaced with 50 μL assay buffer (HBSS solution containing 10 mM HEPES pH7.4 and 5 mM glucose). […]
The concentration of cAMP (cyclic adenosine monophosphate) in the cell lysate was determined using AlphaScreen™ methodology. […] The AlphaScreen™ signal was measured using an EnVision spectrophotometer (Perkin-Elmer Inc.) with the recommended manufacturer's settings. cAMP concentrations were determined by reference to a calibration curve determined in the same experiment using standard cAMP concentrations. […] Intrinsic Activity was expressed as a fraction relative to the maximum activity determined for formoterol in each experiment. […]

[3] = test system: LPS-induced intra-alveolar neutrophilia; test: Intra-alveolar neutrophil migration after intratracheal LPS challenge in the CRL:CD rat; assay type: in vivo; settings: Compound W 3 ng/kg intratracheal 30 min prior to LPS 10 μg/kg; BAL 4 hr; mean±s.e.mean
Experimental: LPS challenge in CRL:CD rats causes an influx of neutrophils into the lungs. Under recoverable gaseous anaesthesia (5% isoflourane in oxygen), rats were dosed via the intatracheal route with vehicle (0.05M phosphate, 0.1% Tween 80, 0.6% saline, pH 6), or compound 30 min before challenge with an intratracheal dose of 10 μg/kg LPS.
The rats (250-400 g) were euthanized 4 hr after LPS challenge with 1 mL pentobarbitone sodium. A tracheotomy was performed and a calinula inserted. The airway was then lavaged using 3 mL Isoton at room temperature. The Isoton (BeckmanCoulter, High Wycombe, UK) was left in the airway for 10 seconds before being removed. The bronchio-alveolar lavage (BAL) fluid containing inflammatory cells was placed into a 15 mL centrifuge tube and kept on ice. This process was repeated three times. An aliquot of BAL fluid was removed and the inflammatory cells were counted on Sysmex (Sysmex UK, Milton Keynes). Neutrophils were expressed in millions/animal (mean±s.e.mean).

[4] = test system: methacholine-induced bronchoconstriction; test: Lung function in anaesthetised guinea-pigs, methacholine challenge; assay type: in vivo, Dunkin-Hartley guinea pig; settings: tiotropium bromide 0.03 μg/kg intratracheal 2 hours prior; after 5 μg/kg i.v. methacholine
Experimental: Male Dunkin-Hartley guinea pigs (300-600 g) were weighed and dosed with vehicle (0.05M phosphate, 0.1% Tween 80, 0.6% saline, pH 6) or compound via the intratracheal route under recoverable gaseous anaesthesia (5% halothane in oxygen). Animals were dosed with compound or vehicle two hours prior to the administration of histamine or methacholine.
Guinea pigs were anaesthetised with pentobarbitone (1 mL/kg of 60 mg/mL solution i.p.) approximately 30 minutes prior to the first bronchoconstrictor administration. The trachea was cannulated and the animal ventilated using a constant volume respiratory pump (Harvard Rodent Ventilator model 683) at a rate of 60 breath/min and a tidal volume of 5 ml/lkg. […]
The animals were transferred to a Flexivent System (SCIREQ, Montreal, Canada) in order to measure airway resistance. […] Respiratory resistance was measured using the Flexivent “snapshot” facility (1 second duration, 1 Hz frequency). […] After each administration of bronchoconstrictor the peak resistance value was recorded. […] Percentage bronchoprotection produced by a compound was calculated at each dose of brochoconstrictor as follows:
Where % change Rveh is the mean of the maximum percentage change in airway resistance in the vehicle treated group. The results reported were measured after 5 μg/kg histamine or methacholine and were expressed as percentage bronchoprotection (mean±s.e.mean).

## CCN(CC)CCN(CCNCCc1ccc(O)c2[nH]c(=O)sc12)C(=O)CCOCCc1cccc2ccccc12 [Compound A, N-[2-(Diethylamino)ethyl]-N-(2-{[2-(4-hydroxy-2-oxo-2,3-dihydro-1,3-benzothiazol-7-yl)ethyl]amino}ethyl)-3-[2-(1-naphthyl)ethoxy]propanamide dihydrobromide]
[1]; compound A 3 nM
  onset time (time to 90% of the maximum effect of the bronchodilator): 16 ± 3.0 min
[2]; Intrinsic Activity as fraction relative to the maximum activity of formoterol
  β2 Int Act: 0.8

## CNC(=O)c1cc(Cl)c(OC(C)(C)C(=O)O)cc1OC[C@@H](O)CN1CCC2(CC1)Cc1cc(Cl)ccc1O2 [Compound W, 2-{2-Chloro-5-{[(2S)-3-(5-chloro-1′H,3H-spiro[1-benzofuran-2,4′-piperidin]-1′-yl)-2-hydroxypropyl]oxy}-4-[(methylamino)carbonyl]phenoxy}-2-methylpropanoic acid]
[3]
  BAL neutrophils: 6.3±1.1 million/animal

## CCN(CC)CCN(CCNCCc1ccc(O)c2[nH]c(=O)sc12)C(=O)CCOCCc1cccc2ccccc12 [N-[2-(Diethylamino)ethyl]-N-(2-{[2-(4-hydroxy-2-oxo-2,3-dihydro-1,3-benzothiazol-7-yl)ethyl]amino}ethyl)-3-[2-(1-naphthyl)ethoxy]propanamide]
[2]; over adrenergic α1D, adrenergic β1 and dopamine D2 activities
  selectivity of β2 adrenoceptor agonism: ≥ 10 fold

## O=C(Nc1c(Cl)cncc1Cl)c1ccc(OC(F)F)c(OCC2CC2)c1 [roflumilast, 3-(cyclopropylmethoxy)-N-(3,5-dichloro-4-pyridinyl)-4-(difluoromethoxy)benzamide, reference compound]
[1]; roflumilast 1 μM
  onset time (time to 90% of the maximum effect of the bronchodilator): 26 ± 1.4 min

## C[N+]1(C)[C@@H]2C[C@@H](OC(=O)C(O)(c3cccs3)c3cccs3)C[C@H]1[C@@H]1O[C@@H]12 [tiotropium bromide, Tiotropium bromide]
[4]
  inhibition of methacholine-induced bronchoconstriction: 13%
